Measurements published in patent US10836769B2, “Substituted pyrrolizine compounds and uses thereof” (Gilead Sciences, Inc., priority 2018, dated 2020).
Converted amounts (≈) assume the structure as drawn. Where two headings read alike, the source gives them in different places.

Key:
HBV = HBV DNA Quantification Assay; type: cell-based
Protocol: A HepG2 cell line overexpressing the HBV virus attachment receptor sodium-taurocholate cotransporting polypeptide (NTCP) was grown to confluency in DMEM growth medium, Dulbecco's Modified Eagle Medium without sodium pyruvate (Life Technologies, Rockville, Md.) supplemented with 10% FBS (Thermo Scientific, Waltham, Md.), 1% penicillin/streptomycin (Life Technologies, Rockville, Md.) and 2 mM L-glutamine (Life Technologies, Rockville, Md.) in T175 flasks. Cells were infected with HBV AD38 viral particles (Texcell, Frederick, USA) at 4000 genome equivalents per cell. After allowing viral infection to take place for 4 days, the infected cells were harvested from the flasks by trypsinization, washed twice with OptiMEM (Life Technologies, Rockville, Md.) and re-suspended in DMEM containing 2% FBS and 1% DMSO at a density of 0.25E6 cells/ml. Infected cells were seeded on 384 well collagen coated plates (Greiner, Austria) at a density of 20,000 cells/well containing serially diluted compounds of the present disclosure or DMSO (0.5%) in a final volume of 80 μl. The assay plates were incubated for a period of 5 days and the antiviral activity of the test compounds were assayed by detecting the presence of HBV DNA in the culture supernatant using the QuantiGene™ 2.0 nucleic acid quantification kit (Affymetrix, Santa Clara, Calif.).
The culture supernatant was harvested and treated with lysis buffer containing Proteinase K (Affymetrix, Santa Clara, Calif.). The supernatant was incubated with HBV viral DNA specific probes (Affymetrix, Santa Clara, Calif.) for 30 minutes at 55° C. This was followed by addition of 0.2M NaOH for 30 minutes at room temperature to denature the DNA, followed by addition of Neutralization buffer (Affymetrix, Santa Clara, Calif.). The resulting lysed and neutralized supernatant was then added to QuantiGene™ 2.0 384 well plates coated with capture oligonucleotides and incubated overnight at 55° C. The HBV specific probe set consists of Capture Extender oligonucleotides (CE's) and blocking probes. Following the overnight incubation, the wells were incubated for one hour sequentially with a Pre-Amplifier, Amplifier and Labeled probes conjugated to alkaline phosphatase with a wash step between incubations. After the final wash step, the alkaline phosphatase substrate (Luminol APS5) was added and the resulting luminescence signal was read in an EnVision Multilabel Plate Reader (PerkinElmer, Santa Clara, Calif.). The EC50 values were calculated from the fit of the dose-response curves to a four-parameter equation. All EC50 values represent geometric mean values of a minimum of four determinations.

Kinetic Solubility = type: physicochemical; conditions: 0.2 to 100 μM, BD Gentest Solubility Scanner
Protocol: The 10 mM DMSO stock solution of the test compound is serially diluted into a 96-well “DMSO stock dilution plate”. Then Pipette 2 μL from the DMSO stock dilution plate into the “Sample plate” and dilute with 198 µL of the assay media to generate the final concentrations of the test compound ranging from 0.2 to 100 μM. The “Sample plate” is run on a BD Gentest Solubility Scanner.

[1] = Hepatitis B virus, 120 h, HepG2 cell line overexpressing NTCP infected with HBV AD38 viral particles, HBV DNA in culture supernatant after 5 days, geometric mean of a minimum of four determinations, read-out: EC50
[2] = aqueous buffer, kinetic from dmso stock, pH = 7, read-out: Kinetic Solubility at pH = 7
[3] = simulated gastric fluid, kinetic from dmso stock, pH = 1, read-out: Kinetic Solubility at pH = 1
[4] = HepG2 cell line overexpressing NTCP infected with HBV AD38 viral particles, HBV DNA in culture supernatant after 5 days, geometric mean of a minimum of four determinations, read-out: EC50
[5] = pH = 1, read-out: Kinetic Solubility at pH = 1
[6] = pH = 7, read-out: Kinetic Solubility at pH = 7
[7] = Hepatitis B virus, HepG2, 120 h
[8] = assay media at pH 1 (composition not named), simulated gastric fluid, kinetic from dmso stock, pH = 1, read-out: Kinetic Solubility at pH = 1
[9] = assay media at pH 7 (composition not named), aqueous buffer, kinetic from dmso stock, pH = 7, read-out: Kinetic Solubility at pH = 7

Cc1c(C(=O)Nc2cc(F)c(F)c(F)c2)c2n(c1C(=O)C(=O)NC1(c3nncs3)CC(F)(F)C1)CCC2 [Example 1, 5-(2-((3,3-difluoro-1-(1,3,4-thiadiazol-2-yl)cyclobutyl)amino)-2-oxoacetyl)-6-methyl-N-(3,4,5-trifluorophenyl)-2,3-dihydro-1H-pyrrolizine-7-carboxamide]
EC50 (HBV; [1]): 2.5 nM | solubility kinetic (Kinetic Solubility; [2]): 1.7 µM (≈ 0.917 µg/mL) | solubility kinetic (Kinetic Solubility; [3]): < 1 µM

Cc1c(C(=O)Nc2ccc(F)c(C#N)c2)c2n(c1C(=O)C(=O)NC1(c3nncs3)CC(F)(F)C1)CCC2 [Example 2]
EC50 (HBV; [1]): 4.8 nM | solubility kinetic (Kinetic Solubility; [2]): 7.4 µM (≈ 3.91 µg/mL) | solubility kinetic (Kinetic Solubility; [3]): 7.8 µM (≈ 4.12 µg/mL)

Cc1c(C(=O)Nc2ccc(F)c(F)c2)c2n(c1C(=O)C(=O)NC1(c3nncs3)CC(F)(F)C1)CCC2 [Example 3, 5-(2-((3,3-difluoro-1-(1,3,4-thiadiazol-2-yl)cyclobutyl)amino)-2-oxoacetyl)-N-(3,4-difluorophenyl)-6-methyl-2,3-dihydro-1H-pyrrolizine-7-carboxamide]
EC50 (HBV; [1]): 2.3 nM | solubility kinetic (Kinetic Solubility; [2]): 1.1 µM (≈ 0.574 µg/mL) | solubility kinetic (Kinetic Solubility; [3]): 1.5 µM (≈ 0.782 µg/mL)

Cc1c(C(=O)Nc2cc(F)c(F)c(F)c2)c2n(c1C(=O)C(=O)NC1(c3cn(C)nn3)CC(F)(F)C1)CCC2 [Example 4]
EC50 (HBV; [1]): 7.5 nM | solubility kinetic (Kinetic Solubility; [2]): 39.9 µM (≈ 21.4 µg/mL) | solubility kinetic (Kinetic Solubility; [3]): 43.3 µM (≈ 23.2 µg/mL)

Cc1c(C(=O)Nc2ccc(F)c(C#N)c2)c2n(c1C(=O)C(=O)NC1(c3cn(C)nn3)CC(F)(F)C1)CCC2 [Example 5, N-(3-cyano-4-fluorophenyl)-5-(2-((3,3-difluoro-1-(1-methyl-1H-1,2,3-triazol-4-yl)cyclobutyl)amino)-2-oxoacetyl)-6-methyl-2,3-dihydro-1H-pyrrolizine-7-carboxamide]
EC50 (HBV; [1]): 43.6 nM | solubility kinetic (Kinetic Solubility; [2]): 20.7 µM (≈ 10.9 µg/mL) | solubility kinetic (Kinetic Solubility; [3]): 11.3 µM (≈ 5.94 µg/mL)

Cc1c(C(=O)Nc2ccc(F)c(F)c2)c2n(c1C(=O)C(=O)NC1(c3cn(C)nn3)CC(F)(F)C1)CCC2 [Example 6, 5-(2-((3,3-difluoro-1-(1-methyl-1H-1,2,3-triazol-4-yl)cyclobutyl)amino)-2-oxoacetyl)-N-(3,4-difluorophenyl)-6-methyl-2,3-dihydro-1H-pyrrolizine-7-carboxamide]
EC50 (HBV; [1]): 14 nM | solubility kinetic (Kinetic Solubility; [2]): 44.8 µM (≈ 23.2 µg/mL) | solubility kinetic (Kinetic Solubility; [3]): 46.1 µM (≈ 23.9 µg/mL)

Cc1c(C(=O)Nc2ccc(F)cc2)c2n(c1C(=O)C(=O)NC1(c3cnnn3C)CC(F)(F)C1)CCC2 [Example 7, 5-(2-((3,3-difluoro-1-(1-methyl-1H-1,2,3-triazol-5-yl)cyclobutyl)amino)-2-oxoacetyl)-N-(4-fluorophenyl)-6-methyl-2,3-dihydro-1H-pyrrolizine-7-carboxamide]
EC50 (HBV; [1]): 17.9 nM

Cc1c(C(=O)Nc2ccc(F)cc2)c2n(c1C(=O)C(=O)NC1(c3nncs3)CC(F)(F)C1)CCC2 [Example 8]
EC50 (HBV; [1]): 4.7 nM | solubility kinetic (Kinetic Solubility; [2]): 3.9 µM (≈ 1.96 µg/mL) | solubility kinetic (Kinetic Solubility; [3]): 10.5 µM (≈ 5.29 µg/mL)

Cc1c(C(=O)Nc2ccc(F)cc2)c2n(c1C(=O)C(=O)NC1(c3cnn(C)n3)CC(F)(F)C1)CCC2 [Example 9, 5-(2-((3,3-difluoro-14(2-methyl-2H-1,2,3-triazol-4-yl)cyclobutyl)amino)-2-oxoacetyl)-N-4(4-fluorophenyl)-6-methyl-2,3-dihydro-1H-pyrrolizine-7-carboxamide]
EC50 (HBV; [4]): 5.8 nM | solubility kinetic (Kinetic Solubility; [5]): 2.8 µM (≈ 1.4 µg/mL) | solubility kinetic (Kinetic Solubility; [6]): 2.3 µM (≈ 1.15 µg/mL)

Cc1c(C(=O)Nc2ccc(F)cc2)c2n(c1C(=O)C(=O)NC1(c3cn(C)nn3)CC(F)(F)C1)CCC2 [Example 10]
EC50 (HBV; [4]): 33.2 nM | solubility kinetic (Kinetic Solubility; [5]): 1.4 µM (≈ 0.701 µg/mL) | solubility kinetic (Kinetic Solubility; [6]): 52.8 µM (≈ 26.4 µg/mL)

Cc1c(C(=O)Nc2ccc(F)c(F)c2)c2n(c1C(=O)C(=O)NC1(c3cn(C)nn3)CC1)CCC2 [Example 11]
EC50 (HBV; [7]): 71.2 nM | solubility kinetic (Kinetic Solubility; [8]): 48.9 µM (≈ 22.9 µg/mL) | solubility kinetic (Kinetic Solubility; [9]): 56.3 µM (≈ 26.4 µg/mL)

Cc1c(C(=O)Nc2ccc(F)c(F)c2)c2n(c1C(=O)C(=O)NC1(c3cn(C[Si](C)(C)C)nn3)CC1)CCC2 [Example 12]
EC50 (HBV; [7]): 93.6 nM

C#CC1(NC(=O)C(=O)c2c(C)c(C(=O)Nc3ccc(F)c(F)c3)c3n2CCC3)CC1 [Example 13]
EC50 (HBV; [7]): 8.5 nM | solubility kinetic (Kinetic Solubility; [8]): 5 µM (≈ 2.06 µg/mL) | solubility kinetic (Kinetic Solubility; [9]): 6.4 µM (≈ 2.63 µg/mL)

Cc1c(C(=O)Nc2ccc(F)c(F)c2)c2n(c1C(=O)C(=O)N[C@](C)(C(N)=O)C(F)(F)F)CCC2 [Example 47, (R)-5-(2-((3-amino-1,1,1-trifluoro-2-methyl-3-oxopropan-2-yl)amino)-2-oxoacetyl)-N-(3,4-difluorophenyl)-6-methyl-2,3-dihydro-1H-pyrrolizine-7-carboxamide]
EC50 (HBV; [1]): 54.1 nM

Cc1c(C(=O)Nc2ccc(F)c(F)c2)c2n(c1C(=O)C(=O)N[C@@](C)(C(N)=O)C(F)(F)F)CCC2 [Example 48, (S)-5-(2-((3-amino-1,1,1-trifluoro-2-methyl-3-oxopropan-2-yl)amino)-2-oxoacetyl)-N-(3,4-difluorophenyl)-6-methyl-2,3-dihydro-1H-pyrrolizine-7-carboxamide]
EC50 (HBV; [1]): 63.9 nM

Cc1c(C(=O)Nc2ccc(F)c(C(F)F)c2)c2n(c1C(=O)C(=O)NC1(c3nncs3)CC(F)(F)C1)CCC2 [Example 49, 5-(2-((3,3-difluoro-1-(1,3,4-thiadiazol-2-yl)cyclobutyl)amino)-2-oxoacetyl)-N-(3-(difluoromethyl)-4-fluorophenyl)-6-methyl-2,3-dihydro-1H-pyrrolizine-7-carboxamide]
EC50 (HBV; [1]): 3.2 nM

COCc1cc(NC(=O)c2c(C)c(C(=O)C(=O)NC3(c4nncs4)CC(F)(F)C3)n3c2CCC3)ccc1F [Example 50]
EC50 (HBV; [1]): 33.4 nM

COCc1cc(NC(=O)c2c(C)c(C(=O)C(=O)NC3(c4c[nH]nn4)CC(F)(F)C3)n3c2CCC3)ccc1F [Example 51]
EC50 (HBV; [1]): 45 nM

O=C(NC1(c2nncs2)CC1)C(=O)c1c(Cl)c(C(=O)Nc2ccc(F)c(F)c2)c2n1CCC2 [Example 52, 5-(2-((1-(1,3,4-thiadiazol-2-yl)cyclopropyl)amino)-2-oxoacetyl)-6-chloro-N-(3,4-difluorophenyl)-2,3-dihydro-1H-pyrrolizine-7-carboxamide]
EC50 (HBV; [1]): 11 nM

O=C(NC1(c2c[nH]nn2)CC1)C(=O)c1c(Cl)c(C(=O)Nc2ccc(F)c(F)c2)c2n1CCC2 [Example 53, 5-(2-((1-(1H-1,2,3-triazol-4-yl)cyclopropyl)amino)-2-oxoacetyl)-6-chloro-N-(3,4-difluorophenyl)-2,3-dihydro-1H-pyrrolizine-7-carboxamide]
EC50 (HBV; [1]): 6.9 nM

O=C(NC1(c2c[nH]nn2)CC(F)(F)C1)C(=O)c1c(Cl)c(C(=O)Nc2ccc(F)c(F)c2)c2n1CCC2 [Example 54, 6-chloro-5-(2-((3,3-difluoro-1-(1H-1,2,3-triazol-4-yl)cyclobutyl)amino)-2-oxoacetyl)-N-(3,4-difluorophenyl)-2,3-dihydro-1H-pyrrolizine-7-carboxamide]
EC50 (HBV; [1]): 1.6 nM

O=C(NC1(c2c[nH]nn2)CC(F)(F)C1)C(=O)c1c(Cl)c(C(=O)Nc2ccc(F)c(C(F)F)c2)c2n1CCC2 [Example 55, 6-chloro-5-(2-((3,3-difluoro-1-(1H-1,2,3-triazol-4-yl)cyclobutyl)amino)-2-oxoacetyl)-N-(3-(difluoromethyl)-4-fluorophenyl)-2,3-dihydro-1H-pyrrolizine-7-carboxamide]
EC50 (HBV; [1]): 3 nM

O=C(NC1(c2c[nH]nn2)CC1)C(=O)c1c(Cl)c(C(=O)Nc2ccc(F)c(C(F)F)c2)c2n1CCC2 [Example 56]
EC50 (HBV; [1]): 30.2 nM
